Measurements taken from patent US20240254118A1, “PRMT5 INHIBITORS AND USES THEREOF” (Gilead Sciences, Inc., priority 2022, published 2024).
Like-named read-outs stand apart in the source and are kept apart here.

Key:
[1] = tested on: HCT116 MTAP-deleted cells; experiment: Cell viability assay (CellTiter-Glo, 7 days), HCT116 MTAP-deleted; details: Homo sapiens, HCT-116, 168 h
[2] = tested on: SDMA signal (PRMT5 inhibition) in HCT116 MTAP-deleted cells; experiment: Symmetric di-methyl arginine image-based high content screen assay (SDMA assay), HCT116 MTAP-deleted; assay type: cell-based; details: for EC50: Homo sapiens, HCT-116, 72 h, read-out: EC50 (SDMA assay)
Method in brief: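 HCT116 MTAP-deleted cells treated with compound until Day 3, then formalin-fixed, permeabilized and immunostained for SDMA, with DAPI nuclear counterstain. Imaged by high-content microscopy; SDMA read-out is mean Alexa 488 intensity per DAPI-defined cell, reflecting PRMT5 inhibition.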

[3] = SDMA assay, 3 days of treatment, cell line not given, taken as HCT116 MTAP-deleted
[4] = SDMA assay, taken as HCT116 WT versus MTAP-deleted
[5] = SDMA assay, taken as HCT116 WT vs MTAP-deleted

Row | Structure (SMILES) | CC50 [1] [nM] | EC50 [2, 3] [nM] | EC50 selectivity (SDMA assay) [2, 4] | EC50 selectivity (SDMA assay) [2, 5] | EC50 [2] [nM]
1 | CN(C(=O)c1ncco1)N(Cc1ccc(C(F)(F)F)cc1F)C(=O)c1ccc2nc(N)c3cnn(C)c3c2c1 [Example 165, N′-(4-amino-1-methyl-1H-pyrazolo[4,3-c]quinoline-8-carbonyl)-N′-(2-fluoro-4-(trifluoromethyl)benzyl)-N-methyloxazole-2-carbohydrazide] | < 100 | < 1 | 11 | – | –
2 | CN(C(=O)C1(C(F)F)CC1)N(Cc1ccc(C(F)(F)F)cn1)C(=O)c1ccc2nc(N)c3cnn(C)c3c2c1 [Example 339, 4-amino-N′-(1-(difluoromethyl)cyclopropane-1-carbonyl)-N′,1-dimethyl-N-((5-(trifluoromethyl)pyridin-2-yl)methyl)-1H-pyrazolo[4,3-c]quinoline-8-carbohydrazide] | 100 to 1000 | 1 to 5 | 280 | – | –
3 | Cn1ncc2c(N)nc3ccc(C(=O)N(Cc4nc5cc(Cl)ccc5n4C)N4CCCC4=O)cc3c21 [Example 208, 4-Amino-N-[(5-chloro-1-methyl-benzimidazol-2-yl)methyl]-1-methyl-N-(2-oxopyrrolidin-1-yl)pyrazolo[4,3-c]quinoline-8-carboxamide] | < 100 | < 1 | 91 | – | –
4 | Cn1ncc2c(N)nc3ccc(C(=O)N(Cc4ccc(C(F)(F)F)cn4)N4CCCCC4=O)cc3c21 [Example 29, 4-amino-1-methyl-N-(2-oxo-1-piperidyl)-N-[[5-(trifluoromethyl)-2-pyridyl]methyl]pyrazolo[4,3-c]quinoline-8-carboxamide] | < 100 | < 1 | 43 | – | –
5 | CC(=O)N(C)N(Cc1ccc2nsnc2c1)C(=O)c1ccc2nc(N)c3cnn(C)c3c2c1 [Example 96, N′-acetyl-4-amino-N-(2,1,3-benzothiadiazol-5-ylmethyl)-N′,1-dimethyl-pyrazolo[4,3-c]quinoline-8-carbohydrazide] | < 100 | 1 to 5 | 290 | – | –
6 | CC(c1ccc(C(F)(F)F)cn1)N(C(=O)c1ccc2nc(N)c3cscc3c2c1)N(C)C (stereo not drawn) [Example 74, 4-amino-N′,N′-dimethyl-N-(1-(5-(trifluoromethyl)pyridin-2-yl)ethyl)thieno[3,4-c]quinoline-8-carbohydrazide] | 100 to 1000 | > 5 | >71 | – | –
7 | CC(=O)NN(Cc1nc2cc(C(F)(F)F)ccc2s1)C(=O)c1ccc2nc(N)c3cnn(C)c3c2c1 [Example 215, N′-acetyl-4-amino-1-methyl-N-[[5-(trifluoromethyl)-1,3-benzothiazol-2-yl]methyl]pyrazolo[4,3-c]quinoline-8-carbohydrazide] | < 100 | < 1 | 90 | – | –
8 | Cn1ncc2c(N)nc3ccc(C(=O)N(Cc4ccc(C(F)(F)F)cn4)N4CC5(CC5)OC4=O)cc3c21 [Example 190, 4-amino-1-methyl-N-(5-oxo-4-oxa-6-azaspiro[2.4]heptan-6-yl)-N-[[5-(trifluoromethyl)-2-pyridyl]methyl]pyrazolo[4,3-c]quinoline-8-carboxamide] | < 100 | < 1 | 144 | – | –
9 | CC(=O)N(C)N(Cc1ccc(F)cc1Cl)C(=O)c1ccc2nc(N)c3cnn(C)c3c2c1 [Example 451, N′-acetyl-4-amino-N-(2-chloro-4-fluorobenzyl)-N′,1-dimethyl-1H-pyrazolo[4,3-c]quinoline-8-carbohydrazide] | < 100 | < 1 | – | 111 | –
10 | Cn1ncc2c(N)nc3cc(Cl)c(C(=O)N(Cc4ccc(C(F)(F)F)cn4)N4CCCOC4=O)cc3c21 [Example 143, 4-amino-7-chloro-1-methyl-N-(2-oxo-1,3-oxazinan-3-yl)-N-[[5-(trifluoromethyl)-2-pyridyl]methyl]pyrazolo[4,3-c]quinoline-8-carboxamide] | < 100 | 1 to 5 | 67 | – | –
11 | CN(C(=O)[C@H]1C[C@H]1F)N(Cc1ccc(C(F)(F)F)cn1)C(=O)c1ccc2nc(N)c3cnn(C)c3c2c1 [Example 258, 4-amino-N′-((1R,2R)-2-fluorocyclopropane-1-carbonyl)-N′,1-dimethyl-N-((5-(trifluoromethyl)pyridin-2-yl)methyl)-1H-pyrazolo[4,3-c]quinoline-8-carbohydrazide] | < 100 | 1 to 5 | 221 | – | –
12 | CC(=O)N(C)N(Cc1ccc(C#CC23CC(C2)C3)cc1F)C(=O)c1ccc2nc(N)c3cnn(C)c3c2c1 [Example 390, N′-acetyl-4-amino-N-[[4-[2-(1-bicyclo[1.1.1]pentanyl)ethynyl]-2-fluoro-phenyl]methyl]-N′,1-dimethyl-pyrazolo[4,3-c]quinoline-8-carbohydrazide] | < 100 | 1 to 5 | 27 | – | –
13 | CN(C(=O)C1CCC1)N(Cc1ccc(C(F)(F)F)nn1)C(=O)c1cc2c(cc1F)nc(N)c1cnn(C)c12 [Example 162, 4-amino-N′-(cyclobutanecarbonyl)-7-fluoro-N′,1-dimethyl-N-((6-(trifluoromethyl)pyridazin-3-yl)methyl)-1H-pyrazolo[4,3-c]quinoline-8-carbohydrazide] | < 100 | < 1 | 127 | – | –
14 | Cn1ncc2c(N)nc3ccc(C(=O)N(Cc4ccc(C(F)(F)F)cn4)NC(=O)OC(C)(C)C)cc3c21 [Example 277, tert-butyl 2-(4-amino-1-methyl-1H-pyrazolo[4,3-c]quinoline-8-carbonyl)-2-((5-(trifluoromethyl)pyridin-2-yl)methyl)hydrazine-1-carboxylate] | < 100 | 1 to 5 | 229 | – | –
15 | Cn1ncc2c(N)nc3ccc(C(=O)N(Cc4nc(C(F)(F)F)cs4)N4CCCOC4=O)cc3c21 [Example 135, 4-amino-1-methyl-N-(2-oxo-1,3-oxazinan-3-yl)-N-((4-(trifluoromethyl)thiazol-2-yl)methyl)-1H-pyrazolo[4,3-c]quinoline-8-carboxamide] | 100 to 1000 | 1 to 5 | 495 | – | –
16 | CC(=O)N(C)N(Cc1ccc(C(F)(F)F)cn1)C(=O)c1ccc2nc(N)c3sncc3c2c1 [Example 69, N′-acetyl-4-amino-N′-methyl-N-[[5-(trifluoromethyl)-2-pyridyl]methyl]isothiazolo[5,4-c]quinoline-8-carbohydrazide] | 100 to 1000 | 1 to 5 | 142 | – | –
17 | CC(=O)N(C)N(Cc1ccc(C(F)(F)F)cc1F)C(=O)c1ccc2nc(N)c3c(cnn3C)c2c1 [Example 153, N′-acetyl-4-amino-N-(2-fluoro-4-(trifluoromethyl)benzyl)-N′,3-dimethyl-3H-pyrazolo[3,4-c]quinoline-8-carbohydrazide] | < 100 | 1 to 5 | 54 | – | –
18 | Cn1ncc2c(N)nc3ccc(C(=O)N(Cc4ccc(Cl)cc4F)NC(=O)C4CC4)cc3c21 [Example 439, 4-amino-N-(4-chloro-2-fluorobenzyl)-N′-(cyclopropanecarbonyl)-1-methyl-1H-pyrazolo[4,3-c]quinoline-8-carbohydrazide] | < 100 | < 1 | – | 51 | –
19 | Cn1ncc2c(N)nc3ccc(C(=O)N(Cc4ccc(C(F)(F)F)cn4)N4CCOC4=O)cc3c21 [Example 133, 4-amino-1-methyl-N-(2-oxooxazolidin-3-yl)-N-((5-(trifluoromethyl)pyridin-2-yl)methyl)-1H-pyrazolo[4,3-c]quinoline-8-carboxamide] | < 100 | < 1 | 92 | – | –
20 | CC(=O)N(c1ncccn1)N(Cc1ccc(C(F)(F)F)cn1)C(=O)c1ccc2nc(N)c3cnn(C)c3c2c1 [Example 114, N′-acetyl-4-amino-1-methyl-N′-pyrimidin-2-yl-N-[[5-(trifluoromethyl)-2-pyridyl]methyl]pyrazolo[4,3-c]quinoline-8-carbohydrazide] | < 100 | < 1 | 32 | – | –
21 | Cn1ncc2c(N)nc3ccc(C(=O)N(Cc4ccc(C(C)(C)O)nc4)N4CCCCC4=O)cc3c21 [Example 66, 4-amino-N-[[6-(1-hydroxy-1-methyl-ethyl)-3-pyridyl]methyl]-1-methyl-N-(2-oxo-1-piperidyl)pyrazolo[4,3-c]quinoline-8-carboxamide] | 100 to 1000 | > 5 | 281 | – | –
22 | CN(C(=O)Oc1ccccc1)N(Cc1ccc(C(F)(F)F)cn1)C(=O)c1ccc2nc(N)c3cnn(C)c3c2c1 [Example 14, Phenyl 2-(4-amino-1-methyl-1H-pyrazolo[4,3-c]quinoline-8-carbonyl)-1-methyl-2-((5-(trifluoromethyl)pyridin-2-yl)methyl)hydrazine-1-carboxylate] | < 100 | – | 148 | – | 1 to 5
23 | CC(=O)N(C)N(Cc1c(Cl)ccc(F)c1F)C(=O)c1ccc2nc(N)c3cnn(C)c3c2c1 [Example 448, N′-acetyl-4-amino-N-(6-chloro-2,3-difluorobenzyl)-N′,1-dimethyl-1H-pyrazolo[4,3-c]quinoline-8-carbohydrazide] | < 100 | 1 to 5 | – | 224 | –
24 | CC(=O)N(C)N(Cc1ccc(-c2csc(C(F)(F)F)n2)cc1F)C(=O)c1ccc2nc(N)c3cnn(C)c3c2c1 [Example 250, N′-acetyl-4-amino-N-(2-fluoro-4-(2-(trifluoromethyl)thiazol-4-yl)benzyl)-N′,1-dimethyl-1H-pyrazolo[4,3-c]quinoline-8-carbohydrazide] | < 100 | < 1 | 153 | – | –
